Earlier results in patent US20070032555A1, “Novel aryloxyphenyl-propanamines” (priority 2005, published 2007).

Legend:
[1] = humans, FDA Talk Paper T04-60
[2] = test system: 6-hydroxydopamine-lesion rats

half life (CYP2D6 poor metabolisers (PM)): 62 h | mean half life (healthy volunteers, CYP2D6 extensive metabolizers (EM)): 18 h | increase of total exposure, measured as AUC0-τ (poor metabolisers (PM) versus extensive metabolizers (EM)): 8-10 fold
Structure (SMILES): CNCC[C@@H](Oc1ccccc1C)c1ccccc1 [Compound 1, (R)-N-methyl-3-phenyl-3-(o-tolyloxy)propan-1-amine]
hepatotoxicity [1]: rare but very severe hepatotoxicity | motor hyperactivity [2]: reductions in their motor hyperactivity
